Laboratory results: US20200029563A1, “NOVEL 5-SUBSTITUTED IMIDAZOLYLMETHYLDIOXOLANE DERIVATIVES” (Bayer CropScience Aktiengesellschaft, priority 2016, published 2020)

Test: Log P by HPLC on reversed phase columns (EEC directive 79/831 Annex V.A8)
Type: physicochemical
Conditions: Table 1; method [a]: LC-UV, acidic range, 0.1% formic acid in water and acetonitrile as eluent
Procedure: Measurement of Log P values was performed according to EEC directive 79/831 Annex V.A8 by HPLC (High Performance Liquid Chromatography) on reversed phase columns with the following methods: • ^[a] Log P value is determined by measurement of LC-UV, in an acidic range, with 0.1% formic acid in water and acetonitrile as eluent (linear gradient from 10% acetonitrile to 95% acetonitrile). • ^[b] Log P value is determined by measurement of LC-UV, in a neutral range, with 0.001 molar ammonium acetate solution in water and acetonitrile as eluent (linear gradient from 10% acetonitrile to 95% acetonitrile). • ^[c] Log P value is determined by measurement of LC-UV, in an acidic range, with 0.1% phosphoric acid and acetonitrile as eluent (linear gradient from 10% acetonitrile to 95% acetonitrile).
If more than one Log P value is available within the same method, all the values are given and separated by “+”.
Calibration was done with straight-chain alkan-2-ones (with 3 to 16 carbon atoms) with known Log P values (measurement of Log P values using retention times with linear interpolation between successive alkanones).

Compound	LogP	chromatographic logP
FC(F)(F)c1cncn1CC1(c2ccc(Oc3ccc(Cl)cc3)cc2Cl)OCCO1 [Compound I-10]	4.64^[a]	
Clc1cc(Oc2ccc(I)cc2)ccc1C1(Cn2cncc2Cl)OCCO1 [Compound I-03]	3.82^[a]	
Fc1cncn1CC1(c2ccc(Oc3ccc(Br)cc3)nc2C(F)(F)F)OCCO1 [Compound I-16]	2.78^[a]	
C#Cc1cncn1CC1(c2ccc(Oc3ccc(Cl)cc3)cc2Cl)OCC(C)O1 (racemic) [Compound I-26]	3.15 ^[a]	
CC1COC(Cn2cncc2Cl)(c2ccc(Oc3ccc(Cl)cc3)cc2Cl)O1 (mixture of isomers) [Compound I-09]	3.64^[a]	
CC1COC(Cn2cncc2Br)(c2ccc(Oc3ccc(C(F)(F)F)cc3)cc2Cl)O1 (racemic) [Compound I-31]	3.85 ^[a]	
Fc1cncn1CC1(c2ccc(Oc3ccc(Br)nc3)nc2C(F)(F)F)OCCO1 [Compound I-20]	2.17^[a]	
Clc1cc(Oc2ccc(Br)cc2)ccc1C1(Cn2cncc2Cl)OCCO1 [Compound I-07]	3.53^[a]	
C#Cc1ccc(Oc2ccc(C3(Cn4cncc4C#C)OCCO3)c(Cl)c2)cc1 [Compound I-25]	2.76 ^[a]	
C[Si](C)(C)C#Cc1ccc(Oc2ccc(C3(Cn4cncc4Br)OCCO3)c(Cl)c2)cc1 [Compound I-24]	4.98 ^[a]	
C#Cc1cncn1CC1(c2ccc(Oc3ccc(Cl)cc3)cc2C(F)(F)F)OCCO1 [Compound I-28]	3.13 ^[a]	
CC1COC(Cn2cncc2Br)(c2ccc(Oc3ccc(Cl)cc3)cc2Cl)O1 (racemic) [Compound I-23]	3.68^[a]	
Clc1cc(Oc2ccc(I)cc2)ccc1C1(Cn2cncc2Br)OCCO1 [Compound I-08]	3.76^[a]	
C#Cc1cncn1CC1(c2ccc(Oc3ccc(C(F)(F)F)cc3)cc2Cl)OCCO1 [Compound I-30, 1-[(2-{2-chloro-4-[4-(trifluoromethyl)phenoxy]phenyl}-1,3-dioxolan-2-yl)methyl]-5-ethynyl-1H-imidazole]		3.04
Fc1cncn1CC1(c2ccc(Oc3ccc(Cl)cc3)cc2Cl)OCCO1 [Compound I-11]	2.88^[a]	
FC(F)(F)c1ccc(Oc2ccc(C3(Cn4cncc4Br)OCCO3)c(Cl)c2)cc1 [Compound I-29]	3.44 ^[a]	
FC(F)(F)c1cc(Oc2ccc(Br)cc2)ccc1C1(Cn2cncc2Cl)OCCO1 [Compound I-06]	3.77^[a]	
C#Cc1cncn1CC1(c2ccc(Oc3ccc(Cl)cc3)cc2Cl)OCCO1 [Compound I-22]	2.94^[a]	
FC(F)(F)c1cc(Oc2ccc(Cl)nc2)ccc1C1(Cn2cncc2Cl)OCCO1 [Compound I-05]	2.58^[a]	
FC(F)(F)c1cc(Oc2ccc(Cl)cc2)ccc1C1(Cn2cncc2Br)OCCO1 [Compound I-27]	3.58 ^[a]	
N#Cc1cncn1CC1(c2ccc(Oc3ccc(C(F)(F)F)cc3)cc2Cl)OCCO1 [Compound I-34]	3.92 ^[a]	
Clc1cc(Oc2ccc(Br)cc2)ccc1C1(Cn2cncc2Br)OCCO1 [Compound I-21]	3.48^[a]	
Clc1ccc(Oc2ccc(C3(Cn4cncc4Cl)OCCO3)c(Cl)c2)nc1 [Compound I-14]	2.66^[a]	
Clc1ccc(Oc2ccc(C3(Cn4cncc4Cl)OCCO3)c(Cl)c2)cn1 [Compound I-13]	2.42^[a]	
N#Cc1cncn1CC1(c2ccc(Oc3ccc(Cl)cc3)cc2C(F)(F)F)OCCO1 [Compound I-35]	4.03 ^[a]	
Fc1cncn1CC1(c2ccc(Oc3ccc(Cl)cc3)cc2C(F)(F)F)OCCO1 [Compound I-15]	3.06^[a]	
N#Cc1cncn1CC1(c2ccc(Oc3ccc(Cl)cc3)cc2Cl)OCCO1 [Compound I-33]	3.78 ^[a]	
Fc1nc(Oc2ccc(Cl)cc2)ccc1C1(Cn2cncc2F)OCCO1 [Compound I-17]	2.34^[a]	

Same assay, conditions: Table 2 (I-RP compounds); method [a]: LC-UV, acidic range, 0.1% formic acid in water and acetonitrile as eluent

Compound	LogP	chromatographic logP
C[Si](C)(C)C#Cc1cncn1CC1(c2ccc(Oc3ccc(Cl)cc3)cc2Cl)OCCO1 [I-RP-01]	4.54 ^[a]	
C[Si](C)(C)C#Cc1cncn1CC1(c2ccc(Oc3ccc(C(F)(F)F)cc3)cc2Cl)OCCO1 [I-RP-05, 1-[(2-{2-chloro-4-[4-(trifluoromethyl)phenoxy]phenyl}-1,3-dioxolan-2-yl)methyl]-5-[(trimethylsilyl)ethynyl]-1H-imidazole]		4.59
CC1COC(Cn2cncc2C#C[Si](C)(C)C)(c2ccc(Oc3ccc(Cl)cc3)cc2Cl)O1 (racemic) [I-RP-03]	4.90 ^[a]	
C[Si](C)(C)C#Cc1cncn1CC1(c2ccc(Oc3ccc(Cl)cc3)cc2C(F)(F)F)OCCO1 [I-RP-04]	4.67 ^[a]	
C[Si](C)(C)C#Cc1ccc(Oc2ccc(C3(Cn4cncc4C#C[Si](C)(C)C)OCCO3)c(Cl)c2)cc1 [I-RP-02]	6.17 ^[a]	

Same assay, conditions: reversed phase HPLC columns; Table 1; method [a]: LC-UV, acidic range, 0.1% formic acid in water and acetonitrile as eluent

Compound	chromatographic logP
Clc1ccc(Oc2ccc(C3(Cn4cncc4Br)OCCO3)c(Cl)c2)cc1 [Compound I-02, 5-bromo-1-[[2-[2-chloro-4-(4-chlorophenoxy)phenyl]-1,3-dioxolan-2-yl]methyl]imidazole]	3.35
CC1COC(Cn2cncc2C#N)(c2ccc(Oc3ccc(C(F)(F)F)cc3)cc2Cl)O1 (stereo not shown) [Compound I-32, 1-{[2-{2-chloro-4-[4-(trifluoromethyl)phenoxy]phenyl}-4-methyl-1,3-dioxolan-2-yl]methyl}-1H-imidazole-5-carbonitrile]	4.08
FC(F)(F)c1cc(Oc2ccc(Cl)cc2)ccc1C1(Cn2cncc2Cl)OCCO1 [Compound I-04, 5-chloro-1-[[2-[4-(4-chlorophenoxy)-2-(trifluoromethyl)phenyl]-1,3-dioxolan-2-yl]methyl]imidazole]	3.75
CC1COC(Cn2cncc2F)(c2ccc(Oc3ccc(Cl)cc3)cc2Cl)O1 (stereo not shown) [Compound I-12, 1-[[2-[2-chloro-4-(4-chlorophenoxy)phenyl]-4-methyl-1,3-dioxolan-2-yl]methyl]-5-fluoro-imidazole]	3.06
Fc1cncn1CC1(c2ccc(Oc3ccc(Cl)cc3)nc2C(F)(F)F)OCCO1 [Compound I-18, 6-(4-chlorophenoxy)-3-[2-[(5-fluoroimidazol-1-yl)methyl]-1,3-dioxolan-2-yl]-2-(trifluoromethyl)pyridine]	2.42
Fc1cncn1CC1(c2ccc(Oc3ccc(C(F)(F)F)nc3)nc2C(F)(F)F)OCCO1 [Compound I-19, 3-[2-[(5-fluoroimidazol-1-yl)methyl]-1,3-dioxolan-2-yl]-2-(trifluoromethyl)-6-[[6-(trifluoromethyl)-3-pyridyl]oxy]pyridine]	2.53
Clc1ccc(Oc2ccc(C3(Cn4cncc4Cl)OCCO3)c(Cl)c2)cc1 [Compound I-01, 5-chloro-1-[[2-[2-chloro-4-(4-chlorophenoxy)phenyl]-1,3-dioxolan-2-yl]methyl]imidazole]	3.29
